According to paper PMC10385824, “Antiproliferative and Tubulin-Destabilising Effects of 3-(Prop-1-en-2-yl)azetidin-2-Ones and Related Compounds in MCF-7 and MDA-MB-231 Breast Cancer Cells” (Pharmaceuticals, 2023):

How the values were obtained:
NCI/ADR-RES = assay: NCI-60 SRB screen, ovarian cancer; type: cell-based, human; settings: Homo sapiens, five dose 0.01–100 µM, 48 h, read-out: GI50
NCI-H23 = assay: NCI-60 SRB screen, non-small cell lung cancer; type: cell-based, human; settings: Homo sapiens; NCI-H23; five dose 0.01–100 µM, 48 h; read-out: GI50
MCF-7 = assay: cells; settings: Homo sapiens, MCF7, 48 h
T-47D = assay: NCI-60 SRB screen, breast cancer; type: cell-based, human; settings: Homo sapiens, T47D; T-47D; five dose 0.01–100 µM, 48 h; read-out: GI50
SK-MEL-5 = assay: NCI-60 SRB screen, melanoma; type: cell-based, human; settings: Homo sapiens; SK-MEL-5; five dose 0.01–100 µM, 48 h; read-out: GI50
PC-3 = assay: NCI-60 SRB screen, prostate cancer; type: cell-based, human; settings: Homo sapiens; PC-3; five dose 0.01–100 µM, 48 h; read-out: GI50
MOLT-4 = assay: NCI-60 SRB screen, leukemia; type: cell-based, human; settings: Homo sapiens; MOLT-4; five dose 0.01–100 µM, 48 h; read-out: GI50
OVCAR-8 = assay: NCI-60 SRB screen, ovarian cancer; type: cell-based, human; settings: Homo sapiens; OVCAR-8; five dose 0.01–100 µM, 48 h; read-out: GI50
OVCAR-3 = assay: NCI-60 SRB screen, ovarian cancer; type: cell-based, human; settings: Homo sapiens; OVCAR-3; five dose 0.01–100 µM, 48 h; read-out: GI50
K-562 = assay: NCI-60 SRB screen, leukemia; type: cell-based, human; settings: Homo sapiens, K562, 48 h; read-out: GI50
OVCAR-4 = assay: NCI-60 SRB screen, ovarian cancer; type: cell-based, human; settings: Homo sapiens; OVCAR-4; five dose 0.01–100 µM, 48 h; read-out: GI50
RPMI-8226 = assay: NCI-60 SRB screen, leukemia; type: cell-based, human; settings: Homo sapiens; RPMI-8226; five dose 0.01–100 µM, 48 h; read-out: GI50
NCI-H552 = assay: NCI-60 SRB screen, non-small cell lung cancer; type: cell-based, human; settings: Homo sapiens; NCI-H552; five dose 0.01–100 µM, 48 h; read-out: GI50
SF539 = assay: NCI-60 SRB screen, CNS cancer; type: cell-based, human; settings: Homo sapiens, SF-539; SF539; five dose 0.01–100 µM, 48 h; read-out: GI50
HS 578T = assay: NCI-60 SRB screen, breast cancer; type: cell-based; settings: Homo sapiens; HS 578T; five dose 0.01–100 µM, 48 h; read-out: GI50
SNB-75 = assay: NCI-60 SRB screen, CNS cancer; type: cell-based, human; settings: Homo sapiens; SNB-75; five dose 0.01–100 µM, 48 h; read-out: GI50
SK-MEL-2 = assay: NCI-60 SRB screen, melanoma; type: cell-based, human; settings: Homo sapiens; SK-MEL-2; five dose 0.01–100 µM, 48 h; read-out: GI50
MDA-MB-468 = assay: NCI-60 SRB screen, breast cancer; type: cell-based, human; settings: Homo sapiens; MDA-MB-468; five dose 0.01–100 µM, 48 h; read-out: GI50
HOP-62 = assay: NCI-60 SRB screen, non-small cell lung cancer; type: cell-based, human; settings: Homo sapiens; HOP-62; five dose 0.01–100 µM, 48 h; read-out: GI50
SK-OV-3 = assay: NCI-60 SRB screen, ovarian cancer; type: cell-based, human; settings: Homo sapiens; SK-OV-3; five dose 0.01–100 µM, 48 h; read-out: GI50
RXF 393 = assay: NCI-60 SRB screen, renal cancer; type: cell-based, human; settings: Homo sapiens; RXF 393; five dose 0.01–100 µM, 48 h; read-out: GI50
MDA-MB-231/ATCC = assay: NCI-60 SRB screen, breast cancer; type: cell-based, human; settings: Homo sapiens, 48 h; for GI50: MDA-MB-231/ATCC, five dose 0.01–100 µM, read-out: GI50
NCI-H460 = assay: NCI-60 SRB screen, non-small cell lung cancer; type: cell-based, human; settings: Homo sapiens; NCI-H460; five dose 0.01–100 µM, 48 h; read-out: GI50
DU-145 = assay: NCI-60 SRB screen, prostate cancer; type: cell-based, human; settings: Homo sapiens; DU-145; five dose 0.01–100 µM, 48 h; read-out: GI50
SF295 = assay: NCI-60 SRB screen, CNS cancer; type: cell-based, human; settings: Homo sapiens, SF-295; SF295; five dose 0.01–100 µM, 48 h; read-out: GI50
MALME-3M = assay: NCI-60 SRB screen, melanoma; type: cell-based, human; settings: Homo sapiens; MALME-3M; five dose 0.01–100 µM, 48 h; read-out: GI50
[1] = test system: MDA-MB-231 human breast cancer cells; assay: Alamar Blue cell viability (antiproliferative) assay; type: cell-based; settings: read-out: IC50
M14 = assay: NCI-60 SRB screen, melanoma; type: cell-based, human; settings: Homo sapiens; M14; five dose 0.01–100 µM, 48 h; read-out: GI50
UO-31 = assay: NCI-60 SRB screen, renal cancer; type: cell-based, human; settings: Homo sapiens; UO-31; five dose 0.01–100 µM, 48 h; read-out: GI50
NCI-H332M = assay: NCI-60 SRB screen, non-small cell lung cancer; type: cell-based; settings: Homo sapiens, five dose 0.01–100 µM, 48 h, read-out: GI50
SK-MEL-28 = assay: NCI-60 SRB screen, melanoma; type: cell-based, human; settings: Homo sapiens; SK-MEL-28; five dose 0.01–100 µM, 48 h; read-out: GI50

## C=C(C)C1C(=O)N(c2cc(OC)c(OC)c(OC)c2)C1c1ccc(OC)cc1 (centres unmarked) [9h, 4-(4-Methoxyphenyl)-1-(3,4,5-trimethoxyphenyl)-3-(prop-1-en-2-yl)azetidin-2-one]
NCI/ADR-RES
  GI50: 0.0213 µM
NCI-H23
  GI50: 0.0237 µM
MCF-7
  GI50: 0.0368 µM
T-47D
  GI50: 26.5 µM
SK-MEL-5
  GI50: 0.0243 µM
PC-3
  GI50: 0.0453 µM
MOLT-4
  GI50: 0.0397 µM
OVCAR-8
  GI50: 0.0373 µM
OVCAR-3
  GI50: 0.0254 µM
K-562
  GI50: 0.041 µM
OVCAR-4
  GI50: 0.0391 µM
RPMI-8226
  GI50: 0.0399 µM
NCI-H552
  GI50: 0.0222 µM
SF539
  GI50: 0.0352 µM
HS 578T
  GI50: 0.0391 µM
SNB-75
  GI50: 0.038 µM
SK-MEL-2
  GI50: 18.6 µM
MDA-MB-468
  GI50: 0.025 µM
HOP-62
  GI50: 0.0576 µM
SK-OV-3
  GI50: 0.0381 µM
RXF 393
  GI50: 0.0375 µM
MDA-MB-231/ATCC
  GI50: 0.0322 µM
MDA-MB-231/ATCC; MDA-MB-231, obtained from NCI, five concentrations 0.01–100 μM, read-out: Antiproliferative Activity IC50
  IC50: 0.0313 µM
NCI-H460
  GI50: 0.0356 µM
DU-145
  GI50: 0.0291 µM
SF295
  GI50: 0.043 µM
MALME-3M
  GI50: > 100 µM
[1]
  IC50: 0.0313 µM
M14
  GI50: 0.221 µM
UO-31
  GI50: 0.505 µM

## C=C(C)C1C(=O)N(c2cc(OC)c(OC)c(OC)c2)C1c1ccc(OC)c(N)c1 (centres unmarked) [9s, 4-(3-Amino-4-methoxyphenyl)-1-(3,4,5-trimethoxyphenyl)-3-(prop-1-en-2-yl)azetidin-2-one]
NCI/ADR-RES
  GI50: 0.0185 µM
NCI-H23
  GI50: 0.0258 µM
MCF-7
  GI50: 0.0324 µM
T-47D
  GI50: > 100 µM
SK-MEL-5
  GI50: 0.0232 µM
PC-3
  GI50: 0.0379 µM
MOLT-4
  GI50: 0.0372 µM
OVCAR-8
  GI50: 0.0308 µM
OVCAR-3
  GI50: 0.0228 µM
K-562
  GI50: 0.0383 µM
OVCAR-4
  GI50: 0.0407 µM
NCI-H332M
  GI50: 0.0511 µM
RPMI-8226
  GI50: 0.0359 µM
NCI-H552
  GI50: 0.0146 µM
SF539
  GI50: 0.0402 µM
HS 578T
  GI50: 0.0409 µM
SNB-75
  GI50: 0.0601 µM
SK-MEL-2
  GI50: 0.0676 µM
MDA-MB-468
  GI50: 0.0216 µM
HOP-62
  GI50: 0.0521 µM
SK-OV-3
  GI50: 0.0317 µM
RXF 393
  GI50: 0.0396 µM
MDA-MB-231/ATCC
  GI50: 0.0315 µM
NCI-H460
  GI50: 0.0332 µM
DU-145
  GI50: 0.0236 µM
SK-MEL-28
  GI50: > 100 µM
SF295
  GI50: 0.0344 µM
M14
  GI50: 0.0248 µM
UO-31
  GI50: 0.074 µM
